Experimental data taken from patent publication US5332739A, “Pyrimidinedione derivatives and antiarrhythmic agents containing same” (Mitsui Toatsu Chemicals, Incorporated, priority 1990, dated 1994).
Structures can show the parent of a compound that is named as a salt.

How the values were obtained:
[1] = test system: Purkinje fiber of the right ventricular free wall; test: Influence on Myocardial Action Potential Duration Time (APD75); type: cell-based, hybrid adult dog; details: Canis lupus familiaris, 20 min, 20 minutes' incubation, 1 Hz, 37° C.; for percent prolongation of action potential duration (APD75) at 1 µg/mL: Dose 1.0 (μg, ml); for percent prolongation of action potential duration (APD75) at 3 µg/mL: Dose 3.0 (μg, ml); for percent prolongation of action potential duration (APD75) at 10 µg/mL: Dose 10.0 (μg, ml)
Experimental: To a hybrid adult dog, 30 mg/kg of pentobarbital was administered through a vein, and after being anesthetized, the heart was removed. Afterward, the right ventricular free wall of the heart was cut and taken out in a Tyrode solution.
The taken right ventricular free wall was fixed in an incubator at 37° C., and a nutritional solution (20 ml of the Tyrode solution) was refluxed.
In this isolated condition, myocardial action potential duration times (APD75) were measured before and after the administration of the respective compounds prepared in the above examples in Table A and d-sotalol as a control medicine, and APD75 (%) was calculated from the measured results in accordance with the formula: […]
A: APD75 before administration
B: APD75 after administration
Here, APD75 was measured as follows: A field stimulation of 1 Hz was given to the right ventricular free wall, and any variation of an action potential was depicted on an oscilloscope via a glass microelectrode (10 to 20 M.OMEGA.) thrust into a Purkinje fiber of the free wall and via an amplifier. Afterward, a waveform on the oscilloscope was analyzed by the use of a computer, and the time of from a point of the action potential generation to a point of 75% repolarization was measured. This measured time was regarded as the myocardial action potential duration time (APD75).
The compounds and d-sotalol shown in Table A were separately added to the refluxing nutritional solution (20 ml), and after 20 minutes' incubation, APD75 after the administration was calculated from the variation of the myocardial action potential duration time.
Incidentally, this test was carried out in accordance with a Sato et al's method [H. Sato, K. Hashimoto, Arzneimeittel Forschung, 34 (1), 3a, 376-380 (1984)].

[2] = test system: ventricular muscle (right ventricle); test: Influence on Ventricular Muscle Refractory Period (ERP); type: in vivo, mongrel adult dog; details: Canis lupus familiaris, iv, anesthetized dog, read-out: ERP (%; extensibility of refractory period); for change in vivo at 0.1 mg/kg: Dose 0.1 mg/kg i.v.; for change in vivo at 0.3 mg/kg: Dose 0.3 mg/kg i.v.; for change in vivo at 1 mg/kg: Dose 1.0 mg/kg i.v.; for change in vivo at 3 mg/kg: Dose 3.0 mg/kg i.v.
Experimental: Refractory periods were measured in the following manner before and after each of the compounds and d-sotalol shown an Table A was separately administered to a vein or a duodenum, and ERP (%; extensibility of refractory period) was calculated from the measured values in accordance with the following formula: […]
W: Refractory period after administration
Y: Refractory period before administration
To a mongrel adult dog, 30 mg/kg of pentobarbital was administered intravenously, and after being anesthetized, a pair of silver-silver chloride electrodes separated by 3 mm was sewn on an opened right ventricule, and electrical stimulation was given at an interval of 400 msec at a duration time of 4 msec under a current twice as much as the threshold. Afterward, a small amount of alcohol was injected into a sinus artery in order to extinguish a pacemaker activity, and the ventricular refractory period (ERP) was measured under ventricule pacing.
That is, 1 train comprised 10 stimulations, and an interval between two of the trains was usually 400 msec. At the time of the refractory period measurement, however, the above interval was shortened every 10 smec, and the interval between the trains at the time when reaction to the first stimulation of the train disappeared was regarded as the refractory period.
In this case, the electrical stimulation was fed in accordance with a program by a heart stimulation device (Diamedical Co., Ltd.; DHM-226-3).

[3] = Toxicity Test 1 (oral, mortality 24 hours after administration); details: mouse, in vivo, 300 mg/kg (P.O), 2 to 4 mice per group, read-out: Mortality Rate (%)
Experimental: Each of the compounds prepared in the above-mentioned examples shown in Table B was administered into a mouse (ddy strain, male). In each case, the administration was effected by oral administration in a dose of 300 mg/kg.
A mortality rate (number of specimens: one group=2 to 4 mice) of the mice 24 hours after the administration was calculated, and the results are set forth in Table B.

## Cn1c(N2CCN(CCCOc3ccc(-n4cncn4)cc3)CC2)cc(=O)n(C)c1=O [Compound 6]
[1]
  percent prolongation of action potential duration (APD75) at 1 µg/mL: 5%
  percent prolongation of action potential duration (APD75) at 3 µg/mL: 10%
  percent prolongation of action potential duration (APD75) at 10 µg/mL: 25%
[2]
  change in vivo at 0.1 mg/kg: 0%
  change in vivo at 0.3 mg/kg: 0%
  change in vivo at 1 mg/kg: 0%
  change in vivo at 3 mg/kg: 6.2%
[3]
  mortality at 24 h: 0%

## Cn1c(N2CCN(CCCOc3ccccc3N)CC2)cc(=O)n(C)c1=O [Compound 69]
[1]
  percent prolongation of action potential duration (APD75) at 3 µg/mL: 24%
  percent prolongation of action potential duration (APD75) at 10 µg/mL: 34%
[2]
  change in vivo at 0.1 mg/kg: 0%
  change in vivo at 0.3 mg/kg: 6.3%
  change in vivo at 1 mg/kg: 12.5%
[3]
  mortality at 24 h: 0%

## Cn1c(N2CCN(CCCOc3ccc(Cl)cc3)CC2)cc(=O)n(C)c1=O [Compound 64, 6-[4-(3-[4-chlorophenoxy]propyl)piperazin-1-yl]-1,3-dimethyl-2,4(1H,3H)-pyrimidinedione.hydrochloride]
[1]; Dose 0.3 (μg, ml)
  percent prolongation of action potential duration (APD75) at 0.3 µg/mL: 7%
[1]
  percent prolongation of action potential duration (APD75) at 1 µg/mL: 14%
  percent prolongation of action potential duration (APD75) at 3 µg/mL: 25%
[2]
  change in vivo at 0.1 mg/kg: 2%
  change in vivo at 0.3 mg/kg: 6.3%
  change in vivo at 1 mg/kg: 13%
  change in vivo at 3 mg/kg: 24.3%
[3]
  mortality at 24 h: 0%

## Cn1c(N2CCN(CCCCOc3ccc(Cl)cc3)CC2)cc(=O)n(C)c1=O [Compound 82, 6-[4-(4-[4-chlorophenoxy]butyl)piperazin-1-yl]-1,3-dimethyl-2,4(1H,3H)-pyrimidinedione.hydrochloride]
[1]
  percent prolongation of action potential duration (APD75) at 1 µg/mL: 16%
  percent prolongation of action potential duration (APD75) at 3 µg/mL: 28%
  percent prolongation of action potential duration (APD75) at 10 µg/mL: 43%
[3]
  mortality at 24 h: 0%

## CC(=O)c1ccc(OCCCN2CCN(c3cc(=O)n(C)c(=O)n3C)CC2)cc1 [Compound 4]
[1]
  percent prolongation of action potential duration (APD75) at 1 µg/mL: 5%
  percent prolongation of action potential duration (APD75) at 3 µg/mL: 8%
[3]
  mortality at 24 h: 0%

## CC(=O)c1cc(Cl)ccc1OCCCN1CCN(c2cc(=O)n(C)c(=O)n2C)CC1 [Compound 45]
[1]
  percent prolongation of action potential duration (APD75) at 1 µg/mL: 42%
  percent prolongation of action potential duration (APD75) at 3 µg/mL: 71%
  percent prolongation of action potential duration (APD75) at 10 µg/mL: 75%
[2]
  change in vivo at 0.1 mg/kg: 0%
  change in vivo at 0.3 mg/kg: 2.4%
  change in vivo at 1 mg/kg: 9.5%
  change in vivo at 3 mg/kg: 18.6%
[3]
  mortality at 24 h: 50%

## COC(=O)c1ccccc1OCCCN1CCN(c2cc(=O)n(C)c(=O)n2C)CC1 [Compound 21]
[1]
  percent prolongation of action potential duration (APD75) at 1 µg/mL: 11%
  percent prolongation of action potential duration (APD75) at 3 µg/mL: 23%
  percent prolongation of action potential duration (APD75) at 10 µg/mL: 26%
[2]
  change in vivo at 0.1 mg/kg: 7.1%
  change in vivo at 0.3 mg/kg: 7.1%
  change in vivo at 1 mg/kg: 7.1%
  change in vivo at 3 mg/kg: 14.3%
[3]
  mortality at 24 h: 0%
